Several values for one entry are separate records, joined by “and”; a condition that tells them apart may be missing. Equal entries are not always repeated.

One assay deals with T1, D(4) dopamine receptor (Rattus norvegicus, UniProt P30729).
T1 sequence (P30729 whole entry): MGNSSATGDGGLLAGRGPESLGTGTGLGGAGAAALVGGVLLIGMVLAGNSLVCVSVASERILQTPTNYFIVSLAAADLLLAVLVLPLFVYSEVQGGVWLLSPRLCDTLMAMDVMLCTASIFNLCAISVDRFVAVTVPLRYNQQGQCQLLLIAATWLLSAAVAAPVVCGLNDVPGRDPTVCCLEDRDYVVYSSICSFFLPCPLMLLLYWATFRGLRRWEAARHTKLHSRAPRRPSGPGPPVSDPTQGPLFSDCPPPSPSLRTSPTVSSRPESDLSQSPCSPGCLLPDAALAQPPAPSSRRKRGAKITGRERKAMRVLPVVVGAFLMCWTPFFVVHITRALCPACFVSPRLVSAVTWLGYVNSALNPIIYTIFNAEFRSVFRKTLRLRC
Regarding `CN1CCN(CCCN2c3ccccc3Sc3ccc(S(=O)(=O)N(C)C)cc32)CC1` [NSC_92178], the affinity, expressed as Ki, was 0.053 µM.
Same read-out and setting: the result for `Nc1nc2c(ncn2[C@@H]2O[C@H](COP(=O)(O)OP(=O)(O)OP(=O)(O)O)[C@@H](O)[C@H]2O)c(=O)[nH]1` [Dopamine+ (GTP+)] reads 0.45 µM.
In the case of `O=c1[nH]c2ccccc2n1C1CCN(CCCC(c2ccc(F)cc2)c2ccc(F)cc2)CC1` [1-(1-(4,4-bis(4-fluorophenyl)butyl)piperidin-4-yl)-1H-benzo[d]imidazol-2(3H)-one], affinity was put at a Ki of 0.043 µM.
The same measure, in the same setting: the result for `CCN1CCC[C@H]1CNC(=O)c1c(O)c(Cl)cc(Cl)c1OC` [3,5-Dichloro-N-(1-ethyl-pyrrolidin-2-ylmethyl)-2-hydroxy-6-methoxy-benzamide (raclopride)] reads 0.237 µM; that for `CC(C)C[C@H]1C(=O)N2CCC[C@H]2[C@]2(O)O[C@](NC(=O)[C@@H]3C=C4c5cccc6[nH]c(Br)c(c56)C[C@H]4N(C)C3)(C(C)C)C(=O)N12` [Bromocriptine+ (GTP+)], 0.34 µM.

The target of another assay is D(2) dopamine receptor (Homo sapiens, UniProt P14416).
Sequence of D(2) dopamine receptor (P14416 whole entry): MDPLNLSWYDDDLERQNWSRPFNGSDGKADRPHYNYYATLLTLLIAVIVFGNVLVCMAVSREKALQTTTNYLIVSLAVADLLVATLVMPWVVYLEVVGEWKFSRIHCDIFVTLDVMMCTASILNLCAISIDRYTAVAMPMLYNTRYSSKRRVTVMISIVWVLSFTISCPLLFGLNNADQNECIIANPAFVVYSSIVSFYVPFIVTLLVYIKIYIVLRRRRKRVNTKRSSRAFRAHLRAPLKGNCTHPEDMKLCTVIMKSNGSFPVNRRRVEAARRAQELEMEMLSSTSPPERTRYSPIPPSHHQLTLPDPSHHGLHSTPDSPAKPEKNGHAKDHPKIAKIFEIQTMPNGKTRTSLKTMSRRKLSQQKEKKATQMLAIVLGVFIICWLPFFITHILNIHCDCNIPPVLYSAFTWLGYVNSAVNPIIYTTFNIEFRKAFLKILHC
Turning to `CC(C)C[C@H]1C(=O)N2CCC[C@H]2[C@]2(O)O[C@](NC(=O)[C@@H]3C=C4c5cccc6[nH]c(Br)c(c56)C[C@H]4N(C)C3)(C(C)C)C(=O)N12` [Bromocriptine+ (GTP+)], the Ki – broadly, the equilibrium dissociation constant of an inhibitor or competing ligand from its target – was 0.0126 µM.

Another assay concerns the target T2, Dopamine receptor D4 (Canis lupus familiaris, UniProt Q589Y6).
T2 sequence (Q589Y6 whole entry): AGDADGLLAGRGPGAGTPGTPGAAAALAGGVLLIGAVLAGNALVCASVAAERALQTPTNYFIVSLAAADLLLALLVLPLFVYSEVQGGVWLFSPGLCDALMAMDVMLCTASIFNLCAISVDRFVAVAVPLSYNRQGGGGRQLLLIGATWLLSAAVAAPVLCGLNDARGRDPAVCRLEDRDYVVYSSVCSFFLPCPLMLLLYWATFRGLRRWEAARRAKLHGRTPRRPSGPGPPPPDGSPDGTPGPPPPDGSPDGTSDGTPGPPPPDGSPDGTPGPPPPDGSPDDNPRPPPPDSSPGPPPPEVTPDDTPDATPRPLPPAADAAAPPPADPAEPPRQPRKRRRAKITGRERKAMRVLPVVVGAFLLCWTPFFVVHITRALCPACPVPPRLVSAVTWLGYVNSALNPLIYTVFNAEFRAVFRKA
With `CCCN1CCC[C@@H]2Cc3n[nH]cc3C[C@H]21` [NSC_54562], the Ki is 0.0048 µM and 0.046 µM.
The compound `CN1CCN(C2=c3ccccc3=Nc3ccc(Cl)cc3N2)CC1` [6-chloro-10-(4-methylpiperazin-1-yl)-2,9-diazatricyclo[9.4.0.0^{3,8}]pentadeca-1,3(8),4,6,10,12,14-heptaene] returned a Ki of 0.009 µM.
`NCCc1c[nH]c2ccc(O)cc12` [[3H]-5-HT] showed a Ki of 4.18 µM.
For the compound `NCC(O)c1ccc(O)c(O)c1` (stereo not drawn) [Noradrenaline,(+)], the Ki was 6 µM and 1.76 µM.
Still for that read-out and setting: for `CN1CCc2cccc3c2[C@H]1Cc1ccc(O)c(O)c1-3` [APOKYN] the value was 0.002 µM and 0.0041 µM; for `NCCc1ccc(O)c(O)c1`, 0.0075 µM and 0.028 µM.
In the case of `O=C(c1ccc(F)cc1)C1CCN(CCn2c(=O)[nH]c3ccccc3c2=O)CC1` [3-(2-{4-[(4-fluorophenyl)carbonyl]piperidin-1-yl}ethyl)-1,2,3,4-tetrahydroquinazoline-2,4-dione], the Ki was 0.192 µM and 0.148 µM.
For `CN1CCN(CCCN2c3ccccc3Sc3ccc(C(F)(F)F)cc32)CC1`, the Ki is 0.0012 µM and 0.003 µM.

The record behind these values is BindingDB's records for doi:10.1038/350610a0 (University of Toronto, 1991).
